Two compounds from ChEMBL document CHEMBL4800727 (2021) can be followed below.

A word on the inhibition: it is the relative decrease from the control value, in per cent. A word on the pKi: it is the negative decadic logarithm of the Ki, by convention in mol/L.

The target in test [1] is T1, Sodium-dependent dopamine transporter (Homo sapiens, UniProt Q01959). Description: GPCRScan assay: inhibition of DAT. More on the design: radioligand conc. used [nm] 3.6 – 16.0, parental cells stable HEK.
Test [2] deals with Serine/threonine-protein kinase 10 (Homo sapiens) (UniProt O94804). Briefly: serine/threonine kinase 10 Millipore kinase panel. Conditions: Compound concentration 10.0 uM.
Test [3] has as its target Ribosomal protein S6 kinase alpha-4 (Homo sapiens) (UniProt O75676). Description: ribosomal protein S6 kinase, 90kDa, polypeptide 4 Millipore kinase panel. As to conditions: Compound concentration 10.0 uM.
Test [4] addresses Protein kinase C delta type (Homo sapiens) (UniProt Q05655). Description: protein kinase C, delta Millipore kinase panel. Conditions: Compound concentration 10.0 uM.
Test [5] deals with Mitogen-activated protein kinase kinase kinase 5 (Homo sapiens) (UniProt Q99683). Description: mitogen-activated protein kinase kinase kinase 5 Millipore kinase panel. As to conditions: Compound concentration 10.0 uM.
Mitogen-activated protein kinase kinase kinase 5 (Homo sapiens), sequence (Q99683 whole entry): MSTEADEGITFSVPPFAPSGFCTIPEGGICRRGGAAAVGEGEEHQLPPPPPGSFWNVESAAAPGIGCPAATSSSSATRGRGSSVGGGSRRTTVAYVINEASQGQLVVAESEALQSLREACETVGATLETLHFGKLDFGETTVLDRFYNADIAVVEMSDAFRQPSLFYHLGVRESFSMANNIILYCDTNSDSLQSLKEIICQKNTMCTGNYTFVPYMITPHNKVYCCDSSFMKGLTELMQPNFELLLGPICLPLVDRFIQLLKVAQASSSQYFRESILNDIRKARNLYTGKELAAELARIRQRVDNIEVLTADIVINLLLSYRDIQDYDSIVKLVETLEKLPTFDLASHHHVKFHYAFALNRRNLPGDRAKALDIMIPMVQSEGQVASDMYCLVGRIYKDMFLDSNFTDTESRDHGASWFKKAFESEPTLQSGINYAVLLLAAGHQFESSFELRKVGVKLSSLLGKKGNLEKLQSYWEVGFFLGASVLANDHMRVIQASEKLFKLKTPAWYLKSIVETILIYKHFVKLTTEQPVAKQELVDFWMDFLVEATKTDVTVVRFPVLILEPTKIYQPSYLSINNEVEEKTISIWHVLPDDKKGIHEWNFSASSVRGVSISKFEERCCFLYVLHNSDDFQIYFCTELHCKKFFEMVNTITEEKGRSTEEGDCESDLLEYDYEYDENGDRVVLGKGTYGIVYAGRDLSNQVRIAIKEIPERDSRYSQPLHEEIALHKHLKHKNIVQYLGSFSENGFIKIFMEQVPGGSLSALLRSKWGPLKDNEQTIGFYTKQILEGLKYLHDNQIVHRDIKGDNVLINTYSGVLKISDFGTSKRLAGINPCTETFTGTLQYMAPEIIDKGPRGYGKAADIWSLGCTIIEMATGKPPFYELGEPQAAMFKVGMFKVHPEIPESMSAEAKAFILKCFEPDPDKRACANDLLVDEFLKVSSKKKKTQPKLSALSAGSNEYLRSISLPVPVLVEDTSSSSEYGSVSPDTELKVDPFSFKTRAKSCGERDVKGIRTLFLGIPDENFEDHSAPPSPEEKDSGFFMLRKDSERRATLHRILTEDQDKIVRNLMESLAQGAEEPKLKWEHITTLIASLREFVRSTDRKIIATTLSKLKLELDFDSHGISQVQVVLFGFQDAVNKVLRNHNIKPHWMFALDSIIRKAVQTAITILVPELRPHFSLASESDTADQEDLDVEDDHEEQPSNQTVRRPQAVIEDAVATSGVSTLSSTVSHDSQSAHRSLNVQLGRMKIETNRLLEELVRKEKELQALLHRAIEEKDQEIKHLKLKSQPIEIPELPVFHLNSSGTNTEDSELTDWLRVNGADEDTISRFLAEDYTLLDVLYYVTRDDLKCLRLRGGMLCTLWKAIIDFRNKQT
The target of test [6] is Adenosine receptor A3 (Homo sapiens) (UniProt P0DMS8). Description: hA3 Cerep panel. Conditions: Compound concentration 10.0 uM.
Test [7] addresses Testis-specific serine/threonine-protein kinase 1 (Homo sapiens) (UniProt Q9BXA7). Description: testis-specific serine kinase 1B Millipore kinase panel. As to conditions: Compound concentration 10.0 uM.
For test [8], the target named is CDK9/cyclin T1 (Homo sapiens) (UniProt O60563+P50750). Description: cyclin-dependent kinase 9 / cyclinT1 Millipore kinase panel. The format is protein-complex assay. As to conditions: Compound concentration 10.0 uM.
The target of test [9] is Insulin-like growth factor 1 receptor (Homo sapiens) (UniProt P08069). Briefly: insulin-like growth factor 1 receptor Millipore kinase panel. Conditions: Compound concentration 10.0 uM.
The target in test [10] is Fibroblast growth factor receptor 2 (Homo sapiens) (UniProt P21802). Briefly: fibroblast growth factor receptor 2 Millipore kinase panel. As to conditions: Compound concentration 10.0 uM.
The target in test [11] is Cyclin-dependent kinase 1/cyclin B (Homo sapiens) (UniProt P06493+P14635+Q8WWL7+O95067). Description: cyclin-dependent kinase 1 / clyclinB Millipore kinase panel. Conditions: Compound concentration 10.0 uM. It counts as protein-complex assay.
Test [12] has as its target Serine/threonine-protein kinase WNK3 (Homo sapiens) (UniProt Q9BYP7). Briefly: WNK lysine deficient protein kinase 3 Millipore kinase panel. Conditions: Compound concentration 10.0 uM.
The species entered for test [13] is Rattus norvegicus. Conditions: Compound concentration 10.0 uM.
The species named for the next test is Homo sapiens. Briefly: hN muscle type alpha Cerep panel. As to conditions: Compound concentration 10.0 uM.
Test [14] can be described thus: glyine Cerep panel. Conditions: Compound concentration 10.0 uM.
For test [15], the target named is Tyrosine-protein kinase Lck (Homo sapiens) (UniProt P06239). Briefly: lymphocyte-specific protein tyrosine kinase (activated) Millipore kinase panel. As to conditions: Compound concentration 10.0 uM.
The target in test [16] is Serine/threonine-protein kinase NLK (Homo sapiens) (UniProt Q9UBE8). Briefly: nemo-like kinase Millipore kinase panel. As to conditions: Compound concentration 10.0 uM.
Test [17] has as its target Alpha-2B adrenergic receptor (Homo sapiens, UniProt P18089). Briefly: GPCRScan assay: inhibition of Alpha2B. Also noted: radioligand conc. used [nm] 1.5 – 2.0, parental cells HEKT.
Test [18] concerns the target Mitogen-activated protein kinase kinase kinase kinase 2 (Homo sapiens) (UniProt Q12851). Briefly: mitogen-activated protein kinase kinase kinase kinase 2 Millipore kinase panel. As to conditions: Compound concentration 10.0 uM.
Test [19] concerns the target NUAK family SNF1-like kinase 1 (Homo sapiens) (UniProt O60285). Description: NUAK family, SNF1-like kinase, 1 Millipore kinase panel. As to conditions: Compound concentration 10.0 uM.
The target in test [20] is Tyrosine-protein kinase receptor TYRO3 (Homo sapiens) (UniProt Q06418). Briefly: TYRO3 protein tyrosine kinase Millipore kinase panel. As to conditions: Compound concentration 10.0 uM.
In test [21] the target is Alpha-1A adrenergic receptor (Rattus norvegicus) (UniProt P43140). Briefly: rAa1 Cerep panel. Conditions: Compound concentration 10.0 uM.
The target in test [22] is LIM domain kinase 1 (Homo sapiens) (UniProt P53667). Description: LIM domain kinase 1 Millipore kinase panel. Conditions: Compound concentration 10.0 uM.
LIM domain kinase 1 (Homo sapiens), sequence (P53667 whole entry, looked up, the tested form may be a part): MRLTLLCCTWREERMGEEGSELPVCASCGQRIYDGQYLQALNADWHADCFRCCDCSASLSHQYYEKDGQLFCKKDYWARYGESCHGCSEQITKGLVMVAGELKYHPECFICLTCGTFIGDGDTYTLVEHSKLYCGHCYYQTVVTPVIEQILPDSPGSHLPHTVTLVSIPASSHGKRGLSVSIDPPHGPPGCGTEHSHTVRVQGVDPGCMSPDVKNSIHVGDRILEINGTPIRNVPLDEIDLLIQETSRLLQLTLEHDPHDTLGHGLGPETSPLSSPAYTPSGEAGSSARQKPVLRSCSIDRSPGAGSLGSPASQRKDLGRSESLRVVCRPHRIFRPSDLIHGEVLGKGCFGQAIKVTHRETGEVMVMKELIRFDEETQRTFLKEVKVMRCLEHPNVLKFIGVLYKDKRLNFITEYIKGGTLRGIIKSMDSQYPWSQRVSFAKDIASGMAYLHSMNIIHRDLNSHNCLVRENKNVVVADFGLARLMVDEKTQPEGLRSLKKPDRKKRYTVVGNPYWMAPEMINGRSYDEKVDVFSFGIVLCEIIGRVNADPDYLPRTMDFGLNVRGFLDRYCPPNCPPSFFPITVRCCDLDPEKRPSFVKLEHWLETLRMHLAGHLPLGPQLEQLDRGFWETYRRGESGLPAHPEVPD
The target of test [23] is T2, 5-hydroxytryptamine receptor 3A (Homo sapiens) (UniProt P46098).
T2 sequence (whole entry): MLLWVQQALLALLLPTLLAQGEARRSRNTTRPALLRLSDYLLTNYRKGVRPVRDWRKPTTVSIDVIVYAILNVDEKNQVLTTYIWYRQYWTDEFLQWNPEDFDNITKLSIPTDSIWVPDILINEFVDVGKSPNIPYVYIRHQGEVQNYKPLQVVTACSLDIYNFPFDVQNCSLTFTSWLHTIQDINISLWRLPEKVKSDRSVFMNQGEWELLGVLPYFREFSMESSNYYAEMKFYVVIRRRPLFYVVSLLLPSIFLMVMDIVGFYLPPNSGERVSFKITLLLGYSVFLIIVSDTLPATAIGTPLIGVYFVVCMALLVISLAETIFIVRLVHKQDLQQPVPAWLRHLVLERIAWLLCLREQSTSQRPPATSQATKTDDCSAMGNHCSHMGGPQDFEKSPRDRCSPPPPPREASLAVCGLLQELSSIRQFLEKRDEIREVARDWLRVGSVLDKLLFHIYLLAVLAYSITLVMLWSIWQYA
Briefly: h5HT3 Cerep panel. Conditions: Compound concentration 10.0 uM.

The target of test [24] is Homeodomain-interacting protein kinase 3 (Homo sapiens) (UniProt Q9H422). Briefly: homeodomain interacting protein kinase 3 Millipore kinase panel. As to conditions: Compound concentration 10.0 uM.
Test [25] concerns the target RAF proto-oncogene serine/threonine-protein kinase (Homo sapiens) (UniProt P04049). Description: v-raf-1 murine leukemia viral oncogene homolog 1 Millipore kinase panel. Conditions: Compound concentration 10.0 uM.
In test [26] the target is Serine/threonine-protein kinase Nek3 (Homo sapiens) (UniProt P51956). Description: NIMA -related kinase 3 Millipore kinase panel. Conditions: Compound concentration 10.0 uM.
The target in test [27] is Rho-associated protein kinase 1 (Homo sapiens) (UniProt Q13464). Description: Rho-associated, coiled-coil containing protein kinase 1 Millipore kinase panel. As to conditions: Compound concentration 10.0 uM.
Test [28] addresses Delta-type opioid receptor (Homo sapiens) (UniProt P41143). Description: hOP1 Cerep panel. As to conditions: Compound concentration 10.0 uM.
Test [29] addresses Serine/threonine-protein kinase STK11 (Homo sapiens) (UniProt Q15831). Briefly: serine/threonine kinase 11 Millipore kinase panel. As to conditions: Compound concentration 10.0 uM.
In test [30] the target is Tyrosine-protein kinase HCK (Homo sapiens) (UniProt P08631). Description: hemopoietic cell kinase Millipore kinase panel. Conditions: Compound concentration 10.0 uM.
In test [31] the target is G protein-coupled receptor kinase 6 (Homo sapiens) (UniProt P43250). Briefly: G protein-coupled receptor kinase 6 Millipore kinase panel. Conditions: Compound concentration 10.0 uM.
Test [32] has as its target Muscarinic acetylcholine receptor M3 (Homo sapiens) (UniProt P20309). Conditions: Compound concentration 10.0 uM.
The target in test [33] is Tyrosine-protein kinase ABL2 (Homo sapiens) (UniProt P42684). Briefly: v-abl Abelson murine leukemia viral oncogene homolog 2 Millipore kinase panel. Conditions: Compound concentration 10.0 uM.
In test [34] the target is Histamine H4 receptor (Homo sapiens) (UniProt Q9H3N8). Conditions: Compound concentration 10.0 uM.
For test [35], the target named is Activated CDC42 kinase 1 (Homo sapiens) (UniProt Q07912). Briefly: tyrosine kinase, non-receptor, 2 Millipore kinase panel. Conditions: Compound concentration 10.0 uM.
The species named for test [36] is Rattus norvegicus. Description: rSLC6/GABA Cerep panel. Conditions: Compound concentration 10.0 uM.
The species named for test [37] is Rattus norvegicus. Briefly: rGlutamate (ionotropic) kanic acid Cerep panel. Conditions: Compound concentration 10.0 uM.
In test [38] the target is T1, Sodium-dependent dopamine transporter. Description: hDAT Cerep panel. Conditions: Compound concentration 10.0 uM.
Test [39] has as its target Tyrosine-protein kinase ITK/TSK (Homo sapiens) (UniProt Q08881). Description: IL2-inducible T-cell kinase Millipore kinase panel. As to conditions: Compound concentration 10.0 uM.
For test [40], the target named is Protein kinase C alpha type (Homo sapiens) (UniProt P17252). Description: protein kinase C, alpha Millipore kinase panel. Conditions: Compound concentration 10.0 uM.
For test [41], the target named is Death-associated protein kinase 3 (Homo sapiens) (UniProt O43293). Description: death-associated protein kinase 3 Millipore kinase panel. As to conditions: Compound concentration 10.0 uM.
For test [42], the target named is Dual specificity calcium/calmodulin-dependent 3',5'-cyclic nucleotide phosphodiesterase 1B (Homo sapiens, UniProt Q01064). Description: hPDE1B1 PDE scan.
In test [43] the target is C-X-C chemokine receptor type 2 (Homo sapiens) (UniProt P25025). Briefly: hBCXCR2 Cerep panel. As to conditions: Compound concentration 10.0 uM.
Test [44] concerns the target Histamine H2 receptor (Homo sapiens) (UniProt P25021). Description: hH2 Cerep panel. As to conditions: Compound concentration 10.0 uM.

Each structure is given as a SMILES string.

T1 sequence (Q01959 whole entry): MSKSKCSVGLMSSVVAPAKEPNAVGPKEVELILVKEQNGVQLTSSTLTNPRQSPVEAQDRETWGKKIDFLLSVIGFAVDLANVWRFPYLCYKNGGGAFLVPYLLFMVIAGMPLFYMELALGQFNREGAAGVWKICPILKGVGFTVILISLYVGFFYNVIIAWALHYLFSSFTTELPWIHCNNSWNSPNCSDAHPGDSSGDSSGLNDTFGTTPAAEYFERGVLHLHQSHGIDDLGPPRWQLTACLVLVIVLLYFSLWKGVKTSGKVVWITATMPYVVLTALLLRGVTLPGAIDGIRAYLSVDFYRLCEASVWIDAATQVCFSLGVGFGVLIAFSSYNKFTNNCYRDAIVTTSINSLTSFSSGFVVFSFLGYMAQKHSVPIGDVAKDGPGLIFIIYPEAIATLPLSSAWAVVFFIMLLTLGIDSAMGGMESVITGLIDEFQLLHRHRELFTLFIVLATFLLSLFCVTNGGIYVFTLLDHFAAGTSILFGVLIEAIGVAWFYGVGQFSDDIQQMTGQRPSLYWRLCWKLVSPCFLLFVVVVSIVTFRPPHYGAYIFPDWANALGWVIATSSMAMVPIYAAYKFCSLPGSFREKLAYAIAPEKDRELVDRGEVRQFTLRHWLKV
Alpha-2B adrenergic receptor, sequence (P18089 whole entry): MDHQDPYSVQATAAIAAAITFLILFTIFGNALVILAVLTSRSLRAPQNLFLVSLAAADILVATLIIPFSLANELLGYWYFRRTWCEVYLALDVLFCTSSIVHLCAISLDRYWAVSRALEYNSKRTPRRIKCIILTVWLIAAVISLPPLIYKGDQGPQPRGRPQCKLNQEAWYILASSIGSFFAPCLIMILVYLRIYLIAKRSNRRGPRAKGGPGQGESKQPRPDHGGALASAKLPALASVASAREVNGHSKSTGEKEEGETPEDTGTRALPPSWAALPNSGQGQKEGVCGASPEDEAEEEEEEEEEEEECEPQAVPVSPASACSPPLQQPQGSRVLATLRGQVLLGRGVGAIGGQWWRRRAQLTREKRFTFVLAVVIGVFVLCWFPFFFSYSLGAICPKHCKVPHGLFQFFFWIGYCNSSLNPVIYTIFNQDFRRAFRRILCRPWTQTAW
RAF proto-oncogene serine/threonine-protein kinase (Homo sapiens), sequence (P04049 whole entry): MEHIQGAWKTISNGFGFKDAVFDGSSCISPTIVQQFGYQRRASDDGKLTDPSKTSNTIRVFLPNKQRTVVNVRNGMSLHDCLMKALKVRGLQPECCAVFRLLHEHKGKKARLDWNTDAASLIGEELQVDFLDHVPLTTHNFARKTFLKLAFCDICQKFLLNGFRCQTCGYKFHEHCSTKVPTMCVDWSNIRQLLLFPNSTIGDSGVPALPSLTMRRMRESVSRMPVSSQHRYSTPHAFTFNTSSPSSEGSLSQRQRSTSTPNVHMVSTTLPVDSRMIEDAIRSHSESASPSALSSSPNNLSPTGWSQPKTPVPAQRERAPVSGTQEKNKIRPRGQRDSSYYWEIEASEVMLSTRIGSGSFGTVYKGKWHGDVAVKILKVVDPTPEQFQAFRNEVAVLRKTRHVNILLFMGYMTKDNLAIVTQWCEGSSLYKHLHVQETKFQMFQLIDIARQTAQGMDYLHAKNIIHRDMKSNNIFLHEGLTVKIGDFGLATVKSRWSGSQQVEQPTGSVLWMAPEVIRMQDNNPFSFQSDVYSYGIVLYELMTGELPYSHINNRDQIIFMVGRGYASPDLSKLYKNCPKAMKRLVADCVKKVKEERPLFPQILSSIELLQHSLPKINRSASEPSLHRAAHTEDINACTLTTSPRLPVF
Ribosomal protein S6 kinase alpha-4 (Homo sapiens), sequence (O75676 whole entry, looked up): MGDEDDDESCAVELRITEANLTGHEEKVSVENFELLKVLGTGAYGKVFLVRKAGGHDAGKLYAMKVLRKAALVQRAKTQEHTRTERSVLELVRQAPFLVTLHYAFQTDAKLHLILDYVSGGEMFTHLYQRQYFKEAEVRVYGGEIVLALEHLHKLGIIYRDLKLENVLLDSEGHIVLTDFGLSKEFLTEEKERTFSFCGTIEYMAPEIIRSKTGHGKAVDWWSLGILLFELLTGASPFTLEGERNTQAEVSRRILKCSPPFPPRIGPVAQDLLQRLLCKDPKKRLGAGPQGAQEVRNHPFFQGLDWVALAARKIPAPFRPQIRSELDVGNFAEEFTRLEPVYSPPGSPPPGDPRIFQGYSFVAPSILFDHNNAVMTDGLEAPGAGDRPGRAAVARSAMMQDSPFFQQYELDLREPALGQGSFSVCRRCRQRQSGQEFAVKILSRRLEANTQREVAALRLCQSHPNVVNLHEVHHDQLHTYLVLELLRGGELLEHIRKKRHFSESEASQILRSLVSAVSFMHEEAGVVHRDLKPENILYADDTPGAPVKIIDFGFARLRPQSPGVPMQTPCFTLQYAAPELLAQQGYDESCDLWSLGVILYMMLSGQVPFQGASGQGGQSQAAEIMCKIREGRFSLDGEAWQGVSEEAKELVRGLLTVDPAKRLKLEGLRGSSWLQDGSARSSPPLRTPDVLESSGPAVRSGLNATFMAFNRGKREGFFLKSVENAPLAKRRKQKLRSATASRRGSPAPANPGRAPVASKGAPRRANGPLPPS
Delta-type opioid receptor (Homo sapiens), sequence (P41143 whole entry): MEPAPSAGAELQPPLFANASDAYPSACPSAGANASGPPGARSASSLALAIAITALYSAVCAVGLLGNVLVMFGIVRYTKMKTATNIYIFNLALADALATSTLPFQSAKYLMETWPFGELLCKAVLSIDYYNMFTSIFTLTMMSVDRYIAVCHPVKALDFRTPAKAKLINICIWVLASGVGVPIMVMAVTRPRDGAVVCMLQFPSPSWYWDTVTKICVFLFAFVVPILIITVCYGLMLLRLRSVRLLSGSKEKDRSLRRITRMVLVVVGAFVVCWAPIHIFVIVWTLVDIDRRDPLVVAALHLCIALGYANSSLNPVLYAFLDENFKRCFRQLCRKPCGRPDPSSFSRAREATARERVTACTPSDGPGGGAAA

With `c1ccc(C2CCN(c3cnc4c(N5CCOCC5)nccn34)CC2)cc1`, the Ki in test [1] (read-out: Ki) was 4.13 µM; in test [1] (read-out: pKi (converted)), 4.17 µM.

As to `COCCc1ccc(-c2c(C)nc3c(N4CCOCC4)ccnn23)cn1` [JNJ-42396302], the inhibition in test [2] was 0%; in test [3], 2%; in [4], -2%; in test [5], -2%; in test [7], 2%; in test [8] it was -1%. Also, the inhibition in [9] was 1%; in [10] it was -5%; in [11], 5%; in test [12], 0%; in the test listed under Rattus norvegicus [13], 2.18%; in test [15], -4%. Further, the inhibition in [16] is 2%; in test [18] it was -5%; in test [19], 7%; in test [20] it was 1%; in test [22] it was -3%; in [24], -6%. The inhibition in test [25] is 10%; in test [26] it was 4%; in test [27] it was -6%; in test [29] it was 4%; in test [30], -2%; in [31] it was 3%. Also, the inhibition in [32] was 6.41%; in test [33] it was 6%; in [34], -1.08%; in [35], 0%; in [39], 1%; in test [40], 15%. Besides, in test [41], the inhibition is -2%. Also, the effect in [6] was 8.4%; in the test listed under Homo sapiens, -7.3%; in test [14], -23.1%; in test [21], -2.55%; in test [23], 3.35%; in [28], 8.95%. Further, the effect in the test filed under Rattus norvegicus [36] was -6%; in the test filed under Rattus norvegicus [37], -25.3%; in [38], 4.5%; in [43] it was 5.15%; in test [44], 18.1%. Also, the results for the Ki in [17] and in test [42] were above 10 µM and 3.4 µM, respectively. Besides, the pKi in [17] is reported as below 5.
